From patent US20250313563A1, “GLYCOGEN SYNTHASE KINASE 3 INHIBITORS AND USES THEREOF” (The Broad Institute, Inc., priority 2022, published 2025)
Like-named read-outs stand apart in the source and are kept apart here.

Key:
[1] = target: GSK3b (GST-full length GSK3b) (Homo sapiens (Human), UniProt P49841); test: GSK3b TR-FRET kinase assay; type: biochemical
Method: (§1) TR-FRET Assay: The assay was performed in a white, 384 well, low volume, flat bottom plate (Grenier). After a 30 minute preincubation in assay buffer with the indicated concentration of compound, the kinase activity was initiated by the addition of the substrates. 1 nM GSK3α (GST-full length GSK3α [SignalChem G08-10G]) or 1 nM GSK3b (GST-full length GSK3b: [SignalChem G08-9G]) were then incubated at ambient temperature for 100 minutes in 10 μL of 50 mM Tris, pH 7.5, 20 mM MgCl2, 0.05 mM DTT, 100 μg/mL BSA and 1% DMSO, with 200 nM biotinylated peptide substrate (biotinylated and S645 phosphorylated glycogen synthase 631-650) and either 4 μM ATP (GSK3α, Table 16) or 2 μM ATP (GSK3b, Table 16) or 1 mM ATP (Table 17). The kinase activity was quenched with 2 μL of 250 mM EDTA. A 10 μL volume of 40 nM Strepavidin-d2, 2 nM Tb^2+-pSer641 antibody in TR-FRET Detection Buffer (Invitrogen) was then added. After 60 min at room temperature the plate was read on Envision plate reader using Ex: 340 nm, Em: 615 nm and […]. The normalized 665/615 Signal ratio versus log compound concentration was analyzed by XLFIT to yield IC50 values.

[2] = target: GSK3α (GST-full length GSK3α) (Homo sapiens (Human), UniProt P49840); test: GSK3α TR-FRET kinase assay; type: biochemical
Method: as §1

[3] = 1 nM GSK3b, 2 μM ATP, 30 minute preincubation, geometric mean, read-out: GSK3-B TR-FRET BIOCHEMICAL (TR-FRET), GMean, IC50
[4] = 1 nM GSK3α, 4 μM ATP, 30 minute preincubation, geometric mean, read-out: GSK3-A TR-FRET BIOCHEMICAL (TR-FRET), GMean, IC50
[5] = 1 nM GSK3b, 2 μM ATP, 30 minute preincubation, Table 16, read-out: GSK3-B TR-FRET BIOCHEMICAL (TR-FRET)
[6] = 1 nM GSK3α, 4 μM ATP, 30 minute preincubation, Table 16, read-out: GSK3-A TR-FRET BIOCHEMICAL (TR-FRET)
[7] = read-out: GSK3-B (TR-FRET 1 mM ATP), GMean, IC50, 1 mM ATP, geometric mean
[8] = read-out: GSK3-A (TR-FRET 1 mM ATP), GMean, IC50, 1 mM ATP, geometric mean
[9] = 1 nM GSK3b, 2 μM ATP, 30 minute preincubation, Table 16, read-out: GSK3-B TR-FRET BIOCHEMICAL (TR-FRET), IC50
[10] = 1 nM GSK3α, 4 μM ATP, 30 minute preincubation, Table 16, read-out: GSK3-A TR-FRET BIOCHEMICAL (TR-FRET), IC50
[11] = 1 nM GSK3b, 2 μM ATP, 30 minute preincubation, read-out: GSK3-B TR-FRET BIOCHEMICAL (TR-FRET), IC50
[12] = 1 nM GSK3α, 4 μM ATP, 30 minute preincubation, read-out: GSK3-A TR-FRET BIOCHEMICAL (TR-FRET), IC50

GSK3b (GST-full length GSK3b), sequence (P49841 whole entry): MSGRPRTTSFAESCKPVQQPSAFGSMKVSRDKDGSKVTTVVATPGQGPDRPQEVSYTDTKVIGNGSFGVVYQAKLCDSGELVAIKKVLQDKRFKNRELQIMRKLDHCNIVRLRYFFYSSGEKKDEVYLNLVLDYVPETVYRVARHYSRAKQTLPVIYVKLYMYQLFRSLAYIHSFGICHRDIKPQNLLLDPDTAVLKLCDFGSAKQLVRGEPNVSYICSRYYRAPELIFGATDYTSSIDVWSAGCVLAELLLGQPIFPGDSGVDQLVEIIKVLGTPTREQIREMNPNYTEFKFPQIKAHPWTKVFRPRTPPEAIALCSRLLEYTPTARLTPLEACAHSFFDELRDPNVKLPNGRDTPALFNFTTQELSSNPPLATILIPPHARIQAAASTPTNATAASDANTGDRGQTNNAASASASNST
GSK3α (GST-full length GSK3α), sequence (P49840 whole entry): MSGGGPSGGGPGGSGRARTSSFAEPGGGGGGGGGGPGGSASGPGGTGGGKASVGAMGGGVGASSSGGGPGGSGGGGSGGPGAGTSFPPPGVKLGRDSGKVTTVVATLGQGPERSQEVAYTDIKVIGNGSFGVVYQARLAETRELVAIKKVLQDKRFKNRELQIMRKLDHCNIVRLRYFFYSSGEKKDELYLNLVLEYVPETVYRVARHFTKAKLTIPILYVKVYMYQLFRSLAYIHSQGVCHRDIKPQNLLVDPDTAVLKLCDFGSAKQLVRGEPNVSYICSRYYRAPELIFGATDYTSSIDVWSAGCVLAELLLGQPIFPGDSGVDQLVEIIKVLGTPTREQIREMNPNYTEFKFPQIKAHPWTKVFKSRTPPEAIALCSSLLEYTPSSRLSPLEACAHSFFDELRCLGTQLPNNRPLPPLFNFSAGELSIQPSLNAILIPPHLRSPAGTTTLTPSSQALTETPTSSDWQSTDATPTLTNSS

IC50 [1, 3] | IC50 [2, 4] | IC50 [1, 5] | IC50 [2, 6] | other results | Structure (SMILES)
> 5000 nM | 100 to 1000 nM |  |  |  | CC[C@@]1(c2cccc(-c3ccnc4cc(Cl)c(C)cc34)c2)C2=C(CC(C)(C)NC2=O)Nc2n[nH]cc21 [Compound 948645]
≤ 100 nM | ≤ 100 nM |  |  |  | CC[C@]1(c2cccc(N(C)c3ncccn3)c2)C2=C(CC(C)(C)NC2=O)Nc2n[nH]cc21 [Compound 947826]
 |  | 1000 to 5000 nM | 100 to 1000 nM |  | CC[C@@]1(c2ccccc2)C2=C(CC(C)(C)[C@H](F)C2=O)Nc2n[nH]cc21 [Compound 957405]
> 5000 nM | 1000 to 5000 nM |  |  |  | CCC1(c2cccc(-c3ccnn3C)c2)C2=C(CC(C)(COC)NC2=O)Nc2n[nH]cc21 (centres unmarked) [Compound 947907]
 |  | 100 to 1000 nM | ≤ 100 nM | IC50 [1, 7]: > 5000 nM; IC50 [2, 8]: 100 to 1000 nM | CC[C@]1(c2cccc(-c3ccnc(C)c3)c2)C2=C(C[C@]3(CCOC3)NC2=O)Nc2n[nH]cc21 [Compound 947406]
 |  |  |  | IC50 [1, 9]: > 5000 nM; IC50 [2, 10]: 1000 to 5000 nM | CCC1(c2cccc(-c3cnn(C)c3F)c2)C2=C(CC(C)(C)NC2=O)Nc2n[nH]cc21 (centres unmarked) [Compound 949395]
 |  | ≤ 100 nM | ≤ 100 nM |  | CC1(C)CC(=O)C2=C(C1)Nc1n[nH]cc1C21CCC(c2ccccc2)CC1 (centres unmarked) [Compound 877320]
 |  |  |  | IC50 [1, 9]: 100 to 1000 nM; IC50 [2, 10]: 100 to 1000 nM | CCC1(c2cccc(N(C)c3ccc(C)nc3)c2)C2=C(CC(C)(C)CC2=O)Nc2n[nH]cc21 (centres unmarked) [Compound 918272]
 |  | 100 to 1000 nM | ≤ 100 nM |  | Cn1ccc(S(=O)(=O)N2CCC3(CC2)C2=C(Nc4n[nH]cc43)[C@@H](F)C(C)(C)CC2=O)n1 [Compound 951708]
 |  | > 5000 nM | 1000 to 5000 nM |  | CC[C@@]1(c2cccc(-c3cc(OC)ncc3F)c2)C2=C(CC(C)(C)CC2=O)Nc2n[nH]cc21 [Compound 944035]
1000 to 5000 nM | 1000 to 5000 nM |  |  |  | CCC1(c2cccc(N3CCCCC3)c2)C2=C(CC(C)(C)NC2=O)Nc2n[nH]cc21 (centres unmarked) [Compound 947566]
 |  |  |  | IC50 [1, 9]: > 5000 nM; IC50 [2, 10]: > 5000 nM | CC1(C)CC(=O)C2=C(C1)Nc1n[nH]cc1C21CN(CC2CCOCC2)C1 [Compound 943545]
 |  | ≤ 100 nM | ≤ 100 nM |  | Cc1ccc(S(=O)(=O)N2CCC3(CC2)C2=C(CC(C)(C)CC2=O)Nc2n[nH]cc23)c(C)c1 [Compound 947468]
> 5000 nM | 1000 to 5000 nM |  |  |  | CC[C@]1(c2cccc(C)c2)C2=C(CC(C)(C)CC2=O)Nc2n[nH]cc21 [Compound 789561]
 |  |  |  | IC50 [1, 11]: > 5000 nM; IC50 [2, 12]: > 5000 nM | CC[C@]1(c2cccc(C(F)(F)F)c2)C2=C(Nc3n[nH]cc31)[C@H](C)CN(C)C2=O [Compound 883982]
 |  |  |  | IC50 [1, 9]: 1000 to 5000 nM; IC50 [2, 10]: 100 to 1000 nM | CCC1(c2cc(N3CCOCC3)ccc2F)C2=C(CC(C)(C)CC2=O)Nc2n[nH]cc21 (centres unmarked) [Compound 909203]
 |  |  |  | IC50 [1, 9]: ≤ 100 nM; IC50 [2, 10]: ≤ 100 nM | CCC1(c2cccc(-c3ccncc3F)c2)C2=C(CC(C)(C)NC2=O)Nc2n[nH]c(C(F)F)c21 (centres unmarked) [Compound 950320]
 |  | ≤ 100 nM | ≤ 100 nM |  | COc1ccccc1S(=O)(=O)N1CC2(C1)C1=C(CC(C)(C)CC1=O)Nc1n[nH]cc12 [Compound 913261]
100 to 1000 nM | ≤ 100 nM |  |  |  | CCC1(c2cccc(-c3ccncc3)c2)C2=C(CC(C)(C)CC2=O)Nc2n[nH]cc21 (centres unmarked) [Compound 791271]
 |  |  |  | IC50 [1, 9]: ≤ 100 nM; IC50 [2, 10]: ≤ 100 nM | CCC1(c2cccc(N(C)c3cnccn3)c2)C2=C(CC(C)(C)CC2=O)Nc2n[nH]cc21 (centres unmarked) [Compound 902971]
 |  |  |  | IC50 [1, 11]: 100 to 1000 nM; IC50 [2, 12]: 100 to 1000 nM | CC1(C)CC(=O)C2=C(C1)Nc1n[nH]cc1[C@]21CCOC2(CCC2)C1 [Compound 897756]

IC50 [1, 3] | IC50 [2, 4] | IC50 [1, 5] | IC50 [2, 6] | other results | Structure (SMILES)
> 5000 nM | > 5000 nM |  |  |  | CC[C@@]1(c2ccccc2)C2=C(C[C@H](C(F)(F)F)CC2=O)Nc2n[nH]cc21 [Compound 806611]
≤ 100 nM | ≤ 100 nM |  |  | IC50 [1, 7]: 100 to 1000 nM; IC50 [2, 8]: ≤ 100 nM | CCC1(c2cccc(-c3ccncc3C)c2)C2=C(CC(C)(C)NC2=O)Nc2n[nH]c(C(F)(F)F)c21 (centres unmarked) [Compound 947404]
> 5000 nM | > 5000 nM |  |  |  | CCC1(c2cccc(-c3ccnc(N4CCCCC4)c3)c2)C2=C(CC(C)(C)NC2=O)Nc2n[nH]cc21 (centres unmarked) [Compound 948663]
≤ 100 nM | ≤ 100 nM |  |  |  | CC[C@]1(c2cccc(-c3ccncc3C)c2)C2=C(CC(C)(C)NC2=O)Nc2[nH]nc(C(F)(F)F)c21 [Compound 947812]
 |  |  |  | IC50 [1, 11]: 100 to 1000 nM; IC50 [2, 12]: ≤ 100 nM | CC1(C)CC(=O)C2=C(C1)Nc1n[nH]cc1C21COC2(CN(C(=O)C3CC(C)(C)C3)C2)C1 (centres unmarked) [Compound 947282]
 |  | 100 to 1000 nM | 100 to 1000 nM |  | C[C@@H]1C[C@@]2(CCO1)C1=C(CC(C)(C)CC1=O)Nc1n[nH]cc12 [Compound 924308]
 |  |  |  | IC50 [1, 11]: 100 to 1000 nM; IC50 [2, 12]: ≤ 100 nM | CC[C@@]1(c2cccc(C(F)(F)F)c2)C2=C(CCN(C)C2=O)Nc2n[nH]cc21 [Compound 917282]
≤ 100 nM | ≤ 100 nM |  |  |  | CCC1(c2cccc(S(C)(=O)=O)c2)C2=C(CC(C)(C)NC2=O)Nc2n[nH]c(C(F)(F)F)c21 (centres unmarked) [Compound 947799]
 |  |  |  | IC50 [1, 9]: > 5000 nM; IC50 [2, 10]: 100 to 1000 nM | CCC1(c2cccc(C(F)(F)F)c2)C2=C(CCN(c3ncn(C)c3C)C2=O)Nc2n[nH]cc21 (centres unmarked) [Compound 951598]
 |  |  |  | IC50 [1, 9]: > 5000 nM; IC50 [2, 10]: 1000 to 5000 nM | CC1(C)CC(=O)C2=C(C1)Nc1n[nH]cc1C21CS(=O)(=O)C1 [Compound 912170]
≤ 100 nM | ≤ 100 nM |  |  |  | CCC1(c2cccc(N(C)c3ncccn3)c2)C2=C(CC(C)(C)NC2=O)Nc2n[nH]c(C(F)(F)F)c21 (centres unmarked) [Compound 948176]
 |  | 100 to 1000 nM | ≤ 100 nM |  | C[C@H]1CC[C@@]2(C1)C1=C(CC(C)(C)CC1=O)Nc1n[nH]cc12 [Compound 897751]
 |  |  |  | IC50 [1, 9]: 1000 to 5000 nM; IC50 [2, 10]: 100 to 1000 nM | CCC1(c2cccc(-c3ccncc3C)c2)C2=C(CC(C)(C)CC2=O)Nc2n[nH]c(C)c21 (centres unmarked) [Compound 913022]
≤ 100 nM | ≤ 100 nM |  |  |  | CCC1(c2cccc(S(=O)(=O)C3CC3)c2)C2=C(CC(C)(C)N(C)C2=O)Nc2n[nH]cc21 (centres unmarked) [Compound 948303]
 |  | > 5000 nM | > 5000 nM |  | CC[C@@]1(c2ccccc2)C2=C(CC(C)(C)[C@@H](F)C2=O)Nc2n[nH]cc21 [Compound 957406]
 |  | 1000 to 5000 nM | 100 to 1000 nM |  | CC1(C)CC(=O)C2=C(C1)Nc1n[nH]cc1[C@]21CC[C@@H](c2ccncc2)CC1 [Compound 949320]
 |  |  |  | IC50 [1, 9]: 100 to 1000 nM; IC50 [2, 10]: ≤ 100 nM | CCC1(c2cccc(-c3ccnc4c3CCC4)c2)C2=C(CC(C)(C)C2=O)Nc2n[nH]cc21 (centres unmarked) [Compound 952557]
 |  | 1000 to 5000 nM | 100 to 1000 nM |  | Cc1nn(C)c(C)c1S(=O)(=O)N1CCC2(CC1)C1=C(CC(C)(C)CC1=O)Nc1n[nH]cc12 [Compound 947257]
 |  | ≤ 100 nM | ≤ 100 nM |  | CC1(C)CC(=O)C2=C(C1)Nc1n[nH]cc1[C@]21CCN(S(C)(=O)=O)C1 [Compound 942432]
 |  |  |  | IC50 [1, 9]: 100 to 1000 nM; IC50 [2, 10]: 100 to 1000 nM | CCC1(c2cccc(-c3ccncc3F)c2)C2=C(CC(C)(C)NC2=O)Nc2n[nH]c(C(F)F)c21 (centres unmarked) [Compound 951599]
